Minimal effective concentration data for 13 molecules are collected here from patent publication US11331369B2, “Endoparasitic depsipeptides” (Zoetis Services LLC, priority 2017, dated 2022).

Test [1] relates to third stage larvae of Haemonchus contortus. As to the kind of experiment: Haemonchus contortus L3 (HcL3) Assay. Format: cell-based. To be noted: 96 h, read-out: HcL3 Minimum Effective Dose (MED).
Test [2] concerns microfilariae of Dirofilaria immitis. As to the kind of experiment: Dirofilaria immitis, Microfilaria (DiMF) In vitro Assay. Format: cell-based. To be noted: 72 h, read-out: DiMF Minimum Effective Dose (MED), approximately 72 hours incubation, microfilariae assessed for survival or paralysis.

For the molecule `Cc1cnn(Cc2ccc(C[C@H]3OC(=O)[C@H](CC(C)C)N(C)C(=O)[C@@H](C)OC(=O)[C@H](CC(C)C)N(C)C(=O)[C@@H](Cc4ccc(Cn5cc(C)cn5)cc4)OC(=O)[C@H](CC(C)C)N(C)C(=O)[C@@H](C)OC(=O)[C@H](CC(C)C)N(C)C3=O)cc2)c1` [Example 1b-24, (3S,6R,9S,12R,15S,18R,21S,24R)-3,9,15,21-tetraisobutyl-4,6,10,16,18,22-hexamethyl-12,24-bis[[4-[(4-methylpyrazol-1-yl)methyl]phenyl]methyl]-1,7,13,19-tetraoxa-4,10,16,22-tetrazacyclotetracosane-2,5,8,11,14,17,20,23-octaone], the figures for the minimal effective concentration in test [1] and in test [2] were 1 to 10 µM and 0.001 to 0.01 µM, respectively.
For `CC(C)C[C@H]1C(=O)O[C@H](Cc2ccc(Cn3ccccc3=O)cc2)C(=O)N(C)[C@@H](CC(C)C)C(=O)O[C@H](C)C(=O)N(C)[C@@H](CC(C)C)C(=O)O[C@H](Cc2ccccc2)C(=O)N(C)[C@@H](CC(C)C)C(=O)O[C@H](C)C(=O)N1C` [Example 10-17, (3S,6R,9S,12R,15S,18R,21S,24R)-6-benzyl-3,9,15,21-tetraisobutyl-4,10,12,16,22,24-hexamethyl-18-(4-((2-oxopyridin-1 (2H)-yl)methyl)benzyl)-1,7,13,19-tetraoxa-4,10,16,22-tetraazacyclotetracosan-2,5,8,11,14,17,20,23-octaone] the same measures were 1 to 10 µM and 0.001 to 0.01 µM.
In the same order, the values of `CC(C)C[C@H]1C(=O)O[C@H](Cc2ccc(Cn3nccc3OC(C)C)cc2)C(=O)N(C)[C@@H](CC(C)C)C(=O)O[C@H](C)C(=O)N(C)[C@@H](CC(C)C)C(=O)O[C@H](Cc2ccc(Cn3ccc(OC(C)C)n3)cc2)C(=O)N(C)[C@@H](CC(C)C)C(=O)O[C@H](C)C(=O)N1C` [Example 1a-35, (3S,6R,9S,12R,15S,18R,21S,24R)-3,9,15,21-tetraisobutyl-6-(4-((3-isopropoxy-1H-pyrazol-1-yl)methyl)benzyl)-18-(4-((5-isopropoxy-1H-pyrazol-1-yl)methyl)benzyl)-4,10,12,16,22,24-hexamethyl-1,7,13,19-tetraoxa-4,10,16,22-tetraazacyclotetracosan-2,5,8,11,14,17,20,23-octaone] are 1 to 10 µM and 0.01 to 0.1 µM.
For `Cc1cc(C)n(Cc2ccc(C[C@H]3OC(=O)[C@H](CC(C)C)N(C)C(=O)[C@@H](C)OC(=O)[C@H](CC(C)C)N(C)C(=O)[C@@H](Cc4ccccc4)OC(=O)[C@H](CC(C)C)N(C)C(=O)[C@@H](C)OC(=O)[C@H](CC(C)C)N(C)C3=O)cc2)n1` [Example 2-7, (3S,6R,9S,12R,15S,18R,21S,24R)-6-benzyl-18-[[4-[(3,5-dimethylpyrazol-1-yl)methyl]phenyl]methyl]-3,9,15,21-tetraisobutyl-4,10,12,16,22,24-hexamethyl-1,7,13,19-tetraoxa-4,10,16,22-tetrazacyclotetracosane-2,5,8,11,14,17,20,23-octaone], the minimal effective concentration in test [1] is 1 to 10 µM; in test [2] it was 0.001 to 0.01 µM.
Take `CC(C)C[C@H]1C(=O)O[C@H](Cc2ccc(Cn3nccc3C3(C)CCOCC3)cc2)C(=O)N(C)[C@@H](CC(C)C)C(=O)O[C@H](C)C(=O)N(C)[C@@H](CC(C)C)C(=O)O[C@H](Cc2ccc(Cn3nccc3C3(C)CCOCC3)cc2)C(=O)N(C)[C@@H](CC(C)C)C(=O)O[C@H](C)C(=O)N1C` [Example 1b-213, (3S,6R,9S,12R,15S,18R,21S,24R)-3,9,15,21-tetraisobutyl-4,6,10,16,18,22-hexamethyl-12,24-bis(4-((5-(4-methyltetrahydro-2H-pyran-4-yl)-1H-pyrazol-1-yl)methyl)benzyl)-1,7,13,19-tetraoxa-4,10,16,22-tetraazacyclotetracosan-2,5,8,11,14,17,20,23-octaone]: the minimal effective concentration in test [1] lay in the range of 1 to 10 µM; in test [2], 0.001 to 0.01 µM.
On to `CC(C)C[C@H]1C(=O)O[C@H](Cc2ccc(CN3C(=O)CCC3=O)cc2)C(=O)N(C)[C@@H](CC(C)C)C(=O)O[C@H](C)C(=O)N(C)[C@@H](CC(C)C)C(=O)O[C@H](Cc2ccc(CN3C(=O)CCC3=O)cc2)C(=O)N(C)[C@@H](CC(C)C)C(=O)O[C@H](C)C(=O)N1C` [Example 9-11, (3S,6R,9S,12R,15S,18R,21S,24R)-6,18-bis(4-((2,5-dioxopyrrolidin-1-yl)methyl)benzyl)-3,9,15,21-tetraisobutyl-4,10,12,16,22,24-hexamethyl-1,7,13,19-tetraoxa-4,10,16,22-tetraazacyclotetracosan-2,5,8,11,14,17,20,23-octaone], for which the results for the minimal effective concentration in test [1] and in test [2] were 1 to 10 µM and 0.001 to 0.01 µM, respectively.
For `Cc1cc(C)n(Cc2ccc(C[C@H]3OC(=O)[C@H](CC(C)C)N(C)C(=O)[C@@H](C)OC(=O)[C@H](CC(C)C)N(C)C(=O)[C@@H](Cc4ccc(Cn5nc(C)cc5C)cc4)OC(=O)[C@H](CC(C)C)N(C)C(=O)[C@@H](C)OC(=O)[C@H](CC(C)C)N(C)C3=O)cc2)n1` [Example 1b-29, (3S,6R,9S,12R,15S,18R,21S,24R)-6,18-bis[[4-[(3,5-dimethylpyrazol-1-yl)methyl]phenyl]methyl]-3,9,15,21-tetraisobutyl-4,10,12,16,22,24-hexamethyl-1,7,13,19-tetraoxa-4,10,16,22-tetrazacyclotetracosane-2,5,8,11,14,17,20,23-octaone], the minimal effective concentration in test [1] is 1 to 10 µM; in test [2] it was 0.001 to 0.01 µM.
As to `CC(C)C[C@H]1C(=O)O[C@H](Cc2ccc(Cn3ccnc3C(C)C)cc2)C(=O)N(C)[C@@H](CC(C)C)C(=O)O[C@H](C)C(=O)N(C)[C@@H](CC(C)C)C(=O)O[C@H](Cc2ccccc2)C(=O)N(C)[C@@H](CC(C)C)C(=O)O[C@H](C)C(=O)N1C` [Example 8-8, (3S,6R,9S,12R,15S,18R,21S,24R)-6-benzyl-3,9,15,21-tetraisobutyl-18-(4-((2-isopropyl-1H-imidazol-1-yl)methyl)benzyl)-4,10,12,16,22,24-hexamethyl-1,7,13,19-tetraoxa-4,10,16,22-tetraazacyclotetracosan-2,5,8,11,14,17,20,23-octaone], the results for the minimal effective concentration in test [1] and in test [2] were 1 to 10 µM and 0.001 to 0.01 µM, respectively.
On to `CC(C)C[C@H]1C(=O)O[C@H](Cc2ccc(Cn3nccc3C(C)(C)C)cc2)C(=O)N(C)[C@@H](CC(C)C)C(=O)O[C@H](C)C(=O)N(C)[C@@H](CC(C)C)C(=O)O[C@H](Cc2ccccc2)C(=O)N(C)[C@@H](CC(C)C)C(=O)O[C@H](C)C(=O)N1C` [Example 2-68, (3S,6R,9S,12R,15S,18R,21S,24R)-6-benzyl-18-(4-((5-(tert-butyl)-1H-pyrazol-1-yl)methyl)benzyl)-3,9,15,21-tetraisobutyl-4,10,12,16,22,24-hexamethyl-1,7,13,19-tetraoxa-4,10,16,22-tetraazacyclotetracosan-2,5,8,11,14,17,20,23-octaone], for which the minimal effective concentration in test [1] lay in the range of 1 to 10 µM; in test [2] it was 0.01 to 0.1 µM.
As to `Cc1nn(Cc2ccc(C[C@H]3OC(=O)[C@H](CC(C)C)N(C)C(=O)[C@@H](C)OC(=O)[C@H](CC(C)C)N(C)C(=O)[C@@H](Cc4ccccc4)OC(=O)[C@H](CC(C)C)N(C)C(=O)[C@@H](C)OC(=O)[C@H](CC(C)C)N(C)C3=O)cc2)c(C)c1F` [Example 2-79, (3S,6R,9S,12R,15S,18R,21S,24R)-6-benzyl-18-(4-((4-fluoro-3,5-dimethyl-1H-pyrazol-1-yl)methyl)benzyl)-3,9,15,21-tetraisobutyl-4,10,12,16,22,24-hexamethyl-1,7,13,19-tetraoxa-4,10,16,22-tetraazacyclotetracosan-2,5,8,11,14,17,20,23-octaone], the minimal effective concentration in test [1] lay within 1 to 10 µM; in test [2], 0.01 to 0.1 µM.
With `CC(C)C[C@H]1C(=O)O[C@H](Cc2ccc(Cn3nc(C4CC4)cc3C3CC3)cc2)C(=O)N(C)[C@@H](CC(C)C)C(=O)O[C@H](C)C(=O)N(C)[C@@H](CC(C)C)C(=O)O[C@H](Cc2ccc(Cn3nc(CO)cc3C3CC3)cc2)C(=O)N(C)[C@@H](CC(C)C)C(=O)O[C@H](C)C(=O)N1C` [Example 1a-14, (3S,6R,9S,12R,15S,18R,21S,24R)-6-(4-((5-cyclopropyl-3-(hydroxymethyl)-1H-pyrazol-1-yl)methyl)benzyl)-18-(4-((3,5-dicyclopropyl-1H-pyrazol-1-yl)methyl)benzyl)-3,9,15,21-tetraisobutyl-4,10,12,16,22,24-hexamethyl-1,7,13,19-tetraoxa-4,10,16,22-tetraazacyclotetracosan-2,5,8,11,14,17,20,23-octaone], the minimal effective concentration in test [1] was in the range of 1 to 10 µM; in test [2] it was 0.01 to 0.1 µM.
For `CC(C)C[C@H]1C(=O)O[C@H](Cc2ccc(Cn3ccnc3CO)cc2)C(=O)N(C)[C@@H](CC(C)C)C(=O)O[C@H](C)C(=O)N(C)[C@@H](CC(C)C)C(=O)O[C@H](Cc2ccccc2)C(=O)N(C)[C@@H](CC(C)C)C(=O)O[C@H](C)C(=O)N1C` [Example 8-13, (3S,6R,9S,12R,15S,18R,21S,24R)-6-benzyl-18-(4-((2-(hydroxymethyl)-1H-imidazol-1-yl)methyl)benzyl)-3,9,15,21-tetraisobutyl-4,10,12,16,22,24-hexamethyl-1,7,13,19-tetraoxa-4,10,16,22-tetraazacyclotetracosan-2,5,8,11,14,17,20,23-octaone], the minimal effective concentration in test [1] is 1 to 10 µM; in test [2], 0.001 to 0.01 µM.
Regarding `CC(C)C[C@H]1C(=O)O[C@H](Cc2ccc(Cn3ncnc3-c3ccccc3)cc2)C(=O)N(C)[C@@H](CC(C)C)C(=O)O[C@H](C)C(=O)N(C)[C@@H](CC(C)C)C(=O)O[C@H](Cc2ccc(Cn3ncnc3-c3ccccc3)cc2)C(=O)N(C)[C@@H](CC(C)C)C(=O)O[C@H](C)C(=O)N1C` [Example 9-34, (3S,6R,9S,12R,15S,18R,21S,24R)-3,9,15,21-tetraisobutyl-4,6,10,16,18,22-hexamethyl-12,24-bis(4-((5-phenyl-1H-1,2,4-triazol-1-yl)methyl)benzyl)-1,7,13,19-tetraoxa-4,10,16,22-tetraazacyclotetracosan-2,5,8,11,14,17,20,23-octaone], the minimal effective concentration was in the range of 1 to 10 µM in test [1] and 0.001 to 0.01 µM in test [2].
